According to US11559579B2 (HealthPartners Research & Education, priority 2014, dated 2023):

What was measured:
[1] = test system: Moderate Controlled Cortical Impact Injury Model (TBI); experiment: Beam walk motor function test after controlled cortical impact; type: in vivo, Sprague Dawley rats; conditions: day 7 post-injury vs day 1 baseline and vs saline (vehicle) rats on day 7; intranasal, first dose 4 hours post-injury, then once a day; FIG. 1
Description: (§1) 2007 Mar. 15; 160(2):187-96. Onyszchuk, G., et al., J. Neurosci. Methods, 2007, 160(2): p.

[2] = test system: M2 microglia (CD206); experiment: M2 microglia marker CD206 expression post-injury; type: in vivo, Sprague Dawley rats; conditions: sacrifice on day 8 post-injury; vs intranasal saline rats; FIG. 3
Description: as §1
(§2) Microglia are the macrophages of the brain, with two dominant phenotypes: M1 and M2.
(§3) M1 microglia are classically activated pro-inflammatory cells. M1 microglia are useful in the initial healing process, but persistent activation results in neuronal cell death due to production of reactive oxygen species. M2 microglia are anti-inflammatory, pro-healing macrophages.

[3] = intranasal insulin; normal adults and patients with Alzheimer's disease; cited from earlier work
[4] = test system: Moderate Controlled Cortical Impact Injury Model (TBI); experiment: Morris water maze probe trial after controlled cortical impact; type: in vivo, Sprague Dawley rats; conditions: days 11-14 post-injury
Description: as §1

[5] = test system: neurons in the hippocampus; experiment: NeuN immunohistochemistry of hippocampus post-injury; type: in vivo, Sprague Dawley rats; conditions: after sacrifice on day 8 post-injury; vs saline rats; FIG. 8a/8b
Description: as §1
FIG. 8a illustrates neuronal viability in the saline rat hippocampus.

[6] = test system: Moderate Controlled Cortical Impact Injury Model (TBI); experiment: Peg walk motor function test after controlled cortical impact; type: in vivo, Sprague Dawley rats; conditions: day 7 vs day 1 baseline and vs saline (vehicle) rats on day 7; intranasal, once a day; FIG. 2
Description: as §1

[7] = test system: M1 microglia (CD86); experiment: M1 microglia marker CD86 expression post-injury; type: in vivo, Sprague Dawley rats; conditions: sacrifice on day 8 post-injury; vs saline rats; FIG. 4
Description: as §1, §2, §3

Substance: insulin
- time to cross the beam (beam walk) [1]: significant decrease in time
- M2 microglia, expression of CD206 [2]: significant increase in M2 microglia
- memory [3]: improve memory
- search strategy (Morris water maze probe trial) ([4]; insulin vs saline (vehicle) treated rats, FIG. 7): saline (vehicle) treated rats utilized significantly less targeted search methods (looping) than insulin rats
- number of crosses of the target island region (Morris water maze probe trial) ([4]; vs saline (vehicle) treated rats, FIG. 6): significant increase in the number of crosses of the target island region
- neuronal viability in the hippocampus (NeuN) [5]: improved neuronal viability in the hippocampus
- peg walk motor function [6]: positive trend towards improved motor function
- M1 microglia markers, expression of CD86 [7]: no significant increase in expression of M1 microglia markers
